Source: patent US5574043A, “Certain [1,2,5-thiadiazol-4-yl]-1-azabicyclo [3.2.1]octane derivatives and their pharmaceutical uses” (Novo Nordisk A/S, priority 1995, dated 1996)
Where a name gives a salt, the structure may show the parent alone.

Molecular target: muscarinic acetylcholine receptors
Assay: Inhibition of specific binding of 3H-Oxotremorine-M (OXO BINDING) in vitro, rat cortex
Parameters: species or system male Wistar rats
Conditions: rat cortex homogenate, 3H-Oxotremorine 1.0 nM, 30 min at 25° C., pH 7.4
From the text: The pharmacological properties of the compounds of the invention can be illustrated by determining their capability to inhibit the specific binding of ^3 H-Oxotremorine-M (^3 H-Oxo). Birdsdall N. J. M., Hulme E. C., and Burgen A. S. V. (1980). "The Character of Muscarinic Receptors in Different Regions of the Rat Brain". Proc. Roy. Soc. London (Series B) 207,1.
^3 H-Oxo labels muscarinic receptor in the CNS (with a preference for agonist domains of the receptors). Three different sites are labelled by ^3 H-Oxo. […] Using the present experimental conditions only the high and medium affinity sites are determined.
The inhibitory effects of compounds on ^3 H-Oxo binding reflects the affinity for muscarinic acetylcholine receptors.
All preparations are performed at 0°-4° C. unless otherwise indicated. Fresh cortex (0.1-1 g) from male Wistar rats (150-250 g) is homogenized for 5-10 s in 10 ml 20 mM Hepes pH: 7.4, with an Ultra-Turrax homogenizer. The homogenizer, is rinsed with 10 ml of buffer and the combined suspension centrifuged for 15 min at 40,000×g. The pellet is washed three times with buffer. In each step the pellet is homogenized as before in 2×10 ml of buffer and centrifuged for 10 min at 40,000×g.
The final pellet is homogenized in 20 mM Hepes pH: 7.4 (100 ml per g of original tissue) and used for binding assay. Aliquots of 0.5 ml is added 25 μl of test solution and 25 μl of ^3 H-Oxotremorine (1.0 nM, final concentration) mixed and incubated for 30 min at 25° C. Non-specific binding is determined in triplicate using arecoline (1 μg/ml, final concentration) as the test substance. After incubation samples are added 5 ml of ice-cold buffer and poured directly onto Whatman GF/C glass fibre filters under suction and immediately washed 2 times with 5 ml of ice-cold buffer. The amount of radioactivity on the filters are determined by conventional liquid scintillation counting. Specific binding is total binding minus non specific binding.
Test substances are dissolved in 10 ml water (if necessary heated on a steam bath for less than 5 minutes) at a concentration of 2.2 mg/ml.
The test value will be given as IC50 (the concentration (ng/ml) of the test substance which inhibits the specific binding of ^3 H-Oxo by 50%).
IC50 =(applied test substance concentration) [formula] where Co is specific binding in control assays and Cx is the specific binding in the test assay. (The calculations assume normal mass-action kinetics).

| SMILES | Inhibition in vitro OXO BINDING IC50 [ng/mL] |
| --- | --- |
| CCCCS(=O)(=O)c1nsnc1[C@@H]1CN2CCC[C@@H]1C2 (relative stereo) [Compound 115, Exo-6-(3-butylsulfonyl-1,2,5-thiadiazol-4-yl)-1-azabicyclo[3.2.1]octane oxalate] | 0.50 |
| N#CCCCSc1nsnc1[C@H]1CN2CCC[C@H]1C2 (relative stereo) [Compound 81, Exo-6-(3-(3-cyanopropyithio)-1,2,5-thiadiazol-4-yl)-1-azabicyclo[3.2.1]octane oxalate] | 0.40 |
| CCCCSc1nsnc1C1CN2CCC1CC2.O=C(O)C(O)C(O)C(=O)O (single isomer, unassigned) [Compound 56, (+) 3-(3-Butylthio-1,2,5-thiadiazol-4-yl)-1-azabicyclo[2.2.2]octane (-)D-tartrate] | 0.14 |
| c1ccc(CCCSc2nsnc2[C@H]2CN3CCC[C@H]2C3)cc1 (relative stereo) [Compound 83, Exo-6-(3-(3-phenylpropylthio)-1,2,5-thiadiazol-4-yl)-1-azabicyclo[3.2.1]octane oxalate] | 0.43 |
| COc1nsnc1[C@@H]1CN2CC[C@H]1C2 (relative stereo) [Compound 23, Endo-3-(3-methoxy-1,2,5-thiadiazol-4-yl)-1-azabicyclo[2.2.1]heptane oxalate] | 43 |
| CCCCOc1nsnc1C1CN2CCC1CC2.O=C(O)C(=O)O (stereo not drawn) [Compound 46, 3-(3-Butoxy-1,2,5-thiadiazol-4-yl)-1-azabicyclo[2.2.2]octane oxalate] | 0.56 |
| Clc1nsnc1C12CCCN(CC1)C2.O=C(O)C(=O)O (stereo not drawn) [Compound 67, 5-(3-Chloro-1,2,5-thiadiazol-4-yl)-1-azabicyclo[3.2.1]octane oxalate] | 0.43 |
| CCCCCCOc1nsnc1C1=CN2CCC1CC2.O=C(O)C(=O)O [Compound 5, 3-(3-Hexyloxy-1,2,5-thiadiazol-4-yl)-1-azabicyclo[2.2.2]oct-2-ene oxalate] | 18 |
| CCCCCOc1nsnc1C1=C(Cl)C2CCCN(C1)C2 (stereo not drawn) [Compound 63, 4-Chloro-3-(3-pentyloxy-1,2,5-thiadiazol-4-yl)-1-azabicyclo[3.3.1]non-3-eneoxalate] | 8.2 |
| N#CCCCCSc1nsnc1[C@H]1CN2CCC[C@H]1C2 (relative stereo) [Compound 78, Exo-6-(3-(4-cyanobutylthio)-1,2,5-thiadiazol-4-yl)-1-azabicyclo[3.2.1]octane oxalate] | 0.30 |
| CCCCCCSc1nsnc1[C@H]1CN2CC[C@H]1C2 (relative stereo) [Compound 39, Exo-3-(3-hexylthio-1,2,5-thiadiazol-4-yl)-1-azabicyclo[2.2.1]heptane oxalate] | 0.52 |
| CSc1nsnc1[C@H]1CN2CCC[C@H]1C2 (relative stereo) [Compound 74, Exo-6-(3-methylthio-1,2,5-thiadiazol-4-yl)-1-azabicyclo[3.2.1]octane oxalate] | 0.45 |
| C=CCCCCSc1nsnc1[C@H]1CN2CCC[C@@H]1C2 (relative stereo) [Compound 18, Endo-6-(3-(5-hexenylthio)-1,2,5-thiadiazol-4-yl)-1-azabicyclo[3.2.1]octane oxalate] | 7.5 |
| CC(C)CCSc1nsnc1[C@@H]1CN2CCC[C@H]1C2 (relative stereo) [Compound 86, Endo-6-(3-isopentylthio-1,2,5-thiadiazol-4-yl)-1-azabicyclo[3.2.1]octane oxalate] | 3.5 |
| N#CCSc1nsnc1[C@H]1CN2CCC[C@@H]1C2 (relative stereo) [Compound 89, Endo-6-(3-cyanomethylthio-1,2,5-thiadiazol-4-yl)-1-azabicyclo[3.2.1]octane oxalate] | 12 |
| N#CCSc1nsnc1[C@H]1CN2CCC[C@H]1C2 (relative stereo) [Compound 79, Exo-6-(3-cyanomethylthio-1,2,5-thiadiazol-4-yl)-1-azabicyclo[3.2.1]octane oxalate] | 0.50 |
| ClC1=C(c2nsnc2Cl)C2CCC(C1)N2.O=C(O)C(=O)O (stereo not drawn) [Compound 47, 3-Chloro-2-(3-chloro-1,2,5-thiadiazol-4-yl)-8-azabicyclo[3.2.1]oct-2-ene oxalate] | > 300 |

| SMILES | Inhibition in vitro OXO BINDING IC50 [ng/mL] |
| --- | --- |
| CCCCCCOc1nsnc1[C@@H]1CN2CCC[C@@H]1C2 (relative stereo) [Compound 122, Exo-6-(3-hexyloxy-1,2,5-thiadiazol-4-yl)-1-azabicyclo[3.2.1]octane oxalate] | 0.67 |
| O=C(O)/C=C/C(=O)O.c1csc(CCCOc2nsnc2C2CN3CCC2CC3)c1 (stereo not drawn) [Compound 110, 3-(3-(3-(2-Thienyl)propoxy)-1,2,5-thiadiazol-4-yl)-1-azabicyclo[2.2.2]octane fumarate] | 1.1 |
| N#CCCSc1nsnc1[C@H]1CN2CCC[C@@H]1C2 (relative stereo) [Compound 90, Endo-6-(3-(2-cyanoethylthio)-1,2,5-thiadiazol-4-yl)-1-azabicyclo[3.2.1]octane oxalate] | 3.3 |
| N#Cc1ccc(CSc2nsnc2[C@H]2CN3CCC[C@H]2C3)cc1 (relative stereo) [Compound 82, Exo-6-(3-(4-cyanobenzylthio)-1,2,5-thiadiazol-4-yl)-1-azabicyclo[3.2.1]octane oxalate] | 0.40 |
| CCCOc1nsnc1C1CN2CCC1CC2.O=C(O)/C=C/C(=O)O (stereo not drawn) [Compound 10, 3-(3-Propoxy-1,2,5-thiadiazol-4-yl)-1-azabicyclo[2.2.2]octane fumarate] | 1.7 |
| CCCCCOc1nsnc1[C@@H]1CN2CCC[C@@H]1C2 (relative stereo) [Compound 121, Exo-6-(3-pentyloxy-1,2,5-thiadiazol-4-yl)-1-azabicyclo[3.2.1]octane oxalate] | 0.32 |
| FC(F)(F)CCCSc1nsnc1[C@@H]1CN2CCC[C@@H]1C2 (single isomer, unassigned) [Compound 130, (+)-Exo-6-(3-(4,4,4-trifluoro-1-butylthio)-1,2,5-thiadiazol-4-yl)-1-azabicyclo[3.2.1]octane oxalate] | 0.60 |
| Clc1nsnc1[C@@H]1CN2CC[C@@H]1C2 (relative stereo) [Compound 21, Exo-3-(3-chloro-1,2,5-thiadiazol-4-yl)-1-azabicyclo[2.2.1]heptane oxalate] | 0.96 |
| c1ccc2sc(SCCCCSc3nsnc3C3CN4CCC3CC4)nc2c1 (stereo not drawn) [Compound 108, 3-(3-(4-(2-Benzothiazolyl)thio)butylthio-1,2,5-thiadiazol-4-yl)-1-azabicyclo[2.2.2]octane oxalate] | 16 |
| CCCCCSc1nsnc1[C@@H]1CN2CC[C@H]1C2 (relative stereo) [Compound 33, Endo-3-(3-pentylthio-1,2,5-thiadiazol-4-yl)-1-azabicyclo[2.2.1]heptane fumarate] | 6.4 |
| CCc1ccc(COc2nsnc2C2CN3CCC2CC3)cc1.O=C(O)C(=O)O (stereo not drawn) [Compound 109, 3-(3-(4-Ethylbenzyloxy)-1,2,5-thiadiazol-4-yl)-1-azabicyclo[2.2.2]octane oxalate] | 4.0 |
| CCCCCCSc1nsnc1C1CN2CCC1CC2.O=C(O)/C=C/C(=O)O (stereo not drawn) [Compound 14, 3-(3-Hexylthio-1,2,5-thiadiazol-4-yl)-1-azabicyclo[2.2.2]octane fumarate] | 4.8 |
| Cn1nnnc1SCCCCSc1nsnc1C1CN2CCC1CC2 (stereo not drawn) [Compound 106, oxalate] | 0.9 |
| c1csc(CCCSc2nsnc2C2CN3CCC2CC3)c1 (stereo not drawn) [Compound 104, 3-(3-(3-(2-Thienyl)propylthio)-1,2,5-thiadiazol-4-yl)-1-azabicyclo[2.2.2]fumarate] | 0.85 |
| CCCSc1nsnc1[C@H]1CN2CCC[C@@H]1C2 (relative stereo) [Compound 57, Endo-6-(3-propylthio-1,2,5-thiadiazol-4-yl)-1-azabicyclo[3.2.1]octane oxalate] | 4.6 |
| CC(C)CSc1nsnc1C1CN2CCC1CC2.O=C(O)/C=C/C(=O)O (stereo not drawn) [Compound 101, 3-(3-Isobutylthio-1,2,5-thiadiazol-4-yl)-1-azabicyclo[2.2.2]octane fumarate] | 0.75 |
